# Laboratory results reported in patent publication US20240142474A1, “Opsins as Chemosensory Receptors and Related Methods” (The Regents of the University of California, priority 2021, published 2024).
# “Also recorded” adds a separate entry of the source.
# Experiments:
# OPN1SW [1] = molecular target: T1, OPN1SW (Mus musculus, UniProt P51491); test: TANGO assay (beta-arrestin recruitment, luciferase reporter) in HTLA cells, OPN1SW; type: cell-based; details: 4 hours
# T1 construct: expressed in transfected cells; host or cells: HTLA cells (HEK293 line with tTA-dependent luciferase reporter and beta-arrestin2-TEV fusion)
# T1 sequence (P51491 1-346): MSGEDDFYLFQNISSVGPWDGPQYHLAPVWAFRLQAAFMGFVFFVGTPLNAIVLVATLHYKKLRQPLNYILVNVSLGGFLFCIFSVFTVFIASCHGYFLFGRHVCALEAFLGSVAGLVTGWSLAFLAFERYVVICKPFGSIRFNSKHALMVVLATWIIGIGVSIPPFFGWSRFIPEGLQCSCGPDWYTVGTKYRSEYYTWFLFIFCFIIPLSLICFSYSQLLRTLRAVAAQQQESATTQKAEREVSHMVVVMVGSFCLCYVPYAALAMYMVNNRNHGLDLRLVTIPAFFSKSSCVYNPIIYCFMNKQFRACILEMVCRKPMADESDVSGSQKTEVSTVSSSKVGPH
# Description: (§1) For example, in one implementation the chemosensory opsin activation detection element comprises a TANGO assay (Transcriptional Activation Following Arrestin Translocation), as known in the art, for example, as described by Kroeze et al., 2015. PRESTO-Tango as an open-source resource for interrogation the druggable human GPCRome. Nat Struct Mol Biol 22, 362-369. In the TANGO systems of the invention, a cell is engineered to express a chemosensory opsin in the form of a fusion protein, wherein the opsin fusion protein comprises an optional membrane trafficking signal (e.g. HA), an optional FLAG tag or like epitope to facilitate detection, and a transcriptional activator which induces the expression of a reporter gene, such as luciferase, wherein the transcriptional activator is joined to an intracellular portion of the opsin, for example, the […], by a cleavage sequence. The cells of the TANGO system are further engineered to express a second fusion protein comprising a beta-arrestin fused to a protease, for example, a TEV protease, wherein the protease is capable of cleaving the fusion protein at the cleavage site. The cells of the TANGO system are further engineered to express a reporter protein, e.g. luciferase, under the control of a transcriptional activator, for example, tetracycline-controlled transactivaor (tTA). Ligand binding to the opsin deployed in the TANGO system triggers a conformational change in the opsin that recruits the beta arrestin-protease fusion protein to the opsin, where proximity of the protease induces cleavage of the transcriptional activator, which trafficks to the nucleus and induces the expression of the reporter gene. The TANGO system advantageously allows direct quantification of opsin activation, independent of g protein activity.
# (§2) Human transcriptomics data was mined to identify putative taste receptor proteins. […] However, the role of these opsins in taste perception has not been previously explored. TANGO detection elements employing each of these opsins, in both human and mouse isoforms, were created in HTLA cells (a HEK293 cell line stably expressing a tTA-dependent luciferase reporter and a β-arrestin2-TEV fusion gene), based on protocols in Kroeze et al., 2015. PRESTO-Tango as an open-source resource for interrogation of the druggable human GPCRome. Nat Struct Mol Biol 22, 362-369.
# (§3) In the TANGO assay, the mouse opsin coding sequence with an N-terminal FLAG tag was synthesized. The construct was cloned into a TANGO vector (Addgene, Waterton MA) at the ClaI site (FLAG::opsin). The HTLA cells were transfected in a 6-well format with LIPOFECTAMINE 2000™ (Thermo Fisher Scientific, Inc, Waltham MA, USA) according to the manufacturer's instructions. 6-8 hours post transfection cells weret split 1:3 and the media was switched to DMEM+ 2.5% fetal bovine serum (Thermo Fisher Scientific Inc., Waltham MA, USA). Cells were allowed to grow for 48 hours before splitting the cells onto poly-L-lysine-coated 96-well clear, flat bottom white polystyrene plates in serum-free media. The next day, chemical solutions diluted in TANGO assay buffer (20 mM HEPES, 1× HBSS, pH 7.40) were added to the cells. After 4 hours, the medium and drug solutions were removed and replaced with […] per well of BRIGHTGLO™ reagent (Promega Corporation, Madison WI) diluted 20-fold with TANGO assay buffer. Plates were incubated for 20 minutes at room temperature in the dark before measuring luminescence with a plate reader (Molecular Devices, iD3). The normalized response was calculated using following formula: RLU (relative luminescence units)=test compound RLU−average vehicle control RLU.
# OPN1SW [2] = molecular target: T2, OPN1SW (Homo sapiens, UniProt P03999); test: Calcium flux GPCR activation assay with Fluo-8 dye, opsin-expressing HEK293T cells, OPN1SW; type: cell-based; details: Fluo-8 calcium flux, data not shown
# T2 construct: expressed in transfected cells; host or cells: HEK293T
# T2 sequence (P03999 1-345): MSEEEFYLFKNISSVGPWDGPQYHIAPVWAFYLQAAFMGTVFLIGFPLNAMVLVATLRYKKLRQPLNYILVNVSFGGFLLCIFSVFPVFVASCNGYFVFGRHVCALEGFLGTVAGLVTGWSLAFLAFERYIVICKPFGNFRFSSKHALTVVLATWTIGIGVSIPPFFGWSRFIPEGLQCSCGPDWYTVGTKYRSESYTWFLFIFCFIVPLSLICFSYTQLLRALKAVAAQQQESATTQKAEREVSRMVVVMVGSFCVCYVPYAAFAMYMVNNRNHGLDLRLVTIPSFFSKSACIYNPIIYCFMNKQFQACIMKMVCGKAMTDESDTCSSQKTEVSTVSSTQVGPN
# Experimental: (§4) These foregoing TANTO results were further confirmed using a second, a calcium flux GPCR activation assay employing Fluo-8 dye, as follows. For this intracellular Ca^2+ measurement, opsin-expressing HEK293T cells were seeded onto 96-well plates (4×10^4 cells per well) in 100 μl of culture medium with reduced serum contents (0.5% of FBS) per well and incubated overnight under standard culture conditions. [Ca2+]i level was assessed the next day after stimulation with bitter compounds used at a different concentration with the SCREEN QUEST Fluo-8 No Wash Calcium Assay Kit (AAT Bioquest, Inc., Sunnyvale, CA, USA) according to the supplier's protocol. Calcium flux was monitored simultaneously by the change in fluorescence (Ex/Em=490/520 nm) following stimulation and with respect to the background fluorescence. [Ca^2+]i was monitored for a period of three minutes, starting before the addition of compounds to the wells and continuing during measurement of the fluorescent signal following cells' stimulation. The obtained fluorescence reads were normalized to the results obtained after stimulation of the cells with the compound solvent.
# OPN3 [3] = molecular target: T3, OPN3 (Mus musculus, UniProt Q9WUK7); test: TANGO assay (beta-arrestin recruitment, luciferase reporter) in HTLA cells, OPN3; type: cell-based; details: 4 hours
# T3 construct: expressed in transfected cells; host or cells: HTLA cells (HEK293 line with tTA-dependent luciferase reporter and beta-arrestin2-TEV fusion)
# T3 sequence (Q9WUK7 whole entry, the tested form may be a part): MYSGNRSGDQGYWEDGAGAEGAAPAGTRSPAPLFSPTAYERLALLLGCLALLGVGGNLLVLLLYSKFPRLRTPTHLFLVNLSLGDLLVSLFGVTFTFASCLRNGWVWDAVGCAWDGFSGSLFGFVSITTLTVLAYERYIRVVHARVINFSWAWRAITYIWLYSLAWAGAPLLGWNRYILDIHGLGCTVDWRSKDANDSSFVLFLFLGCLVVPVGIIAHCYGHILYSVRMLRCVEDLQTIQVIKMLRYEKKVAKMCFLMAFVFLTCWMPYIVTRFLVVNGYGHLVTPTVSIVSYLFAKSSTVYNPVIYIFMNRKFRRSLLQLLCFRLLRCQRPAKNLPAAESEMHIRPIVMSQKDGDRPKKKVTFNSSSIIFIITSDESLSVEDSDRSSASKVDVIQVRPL
# Description: as §1, §2, §3
# OPN3 [4] = molecular target: T4, OPN3 (Homo sapiens, UniProt Q9H1Y3); test: Calcium flux GPCR activation assay with Fluo-8 dye, opsin-expressing HEK293T cells, OPN3; type: cell-based; details: Fluo-8 calcium flux, data not shown
# T4 construct: expressed in transfected cells; host or cells: HEK293T
# T4 sequence (Q9H1Y3 whole entry): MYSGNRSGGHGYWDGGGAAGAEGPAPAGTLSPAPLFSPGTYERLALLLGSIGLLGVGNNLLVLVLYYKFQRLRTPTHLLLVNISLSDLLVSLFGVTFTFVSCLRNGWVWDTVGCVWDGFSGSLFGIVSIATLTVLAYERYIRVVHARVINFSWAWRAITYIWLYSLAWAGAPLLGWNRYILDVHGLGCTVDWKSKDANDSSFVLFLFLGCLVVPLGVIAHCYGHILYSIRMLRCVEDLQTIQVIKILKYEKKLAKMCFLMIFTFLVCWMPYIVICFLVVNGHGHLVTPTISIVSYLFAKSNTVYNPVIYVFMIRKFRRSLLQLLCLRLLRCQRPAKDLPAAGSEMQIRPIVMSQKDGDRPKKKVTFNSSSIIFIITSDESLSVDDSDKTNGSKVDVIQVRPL
# Experimental: as §4
# OPN3 knockout mice = test: Mouse brief-access taste assay (lickometer), OPN3 knockout mice compared to wild type; type: in vivo; details: water restricted
# Experimental: Knockout mice were obtained for OPN1SW and OPN3. Two independent OPN3 knockout mice lines were tested for reaction to naringin by a mouse taste preference assay. A Lickometer device (MS-160, Di Log Instruments, Inc.,Tallahassee, FL, USA) was used to train mice and then measure their licking responses to different tastants in brief-access trials. On a given trial, each sipper tube was filled with a solution and made available to a mouse via a small port that opened to a metal/plexiglass chamber housing the animal. The mouse chamber of the lickometer was modified for these studies by adding a plexiglass barrier that restricted the free movement of animals to an approximate 10 by 15 cm area facing the fluid access port. A computer running software that communicated with the lickometer recorded tongue contacts with the metal tip of the sipper tube during licking and the time intervals (precision=1 ms) between consecutive licks (inter-lick intervals). The amount of time that the sipper tube was available through the access port could be programmed and was controlled by the opening of a normally closed, computer-actuated shutter. This feature facilitated presentation of solutions to a mouse for only a few seconds to support measurements of brief-access licking behavior. By indexing initial licking responses to stimuli over short periods, brief-access procedures intend to focus on oral sensory influences and avoid any post-ingestive effect. Groups of three to four mice were run in these studies at one time. Groups always included equal numbers of mutant and wild-type mice to control for temporal factors.
# Training. Mice were restricted from drinking water for 20-22 hours prior to the onset of training. During training, experimentally naive mice learned to receive fluid in the lickometer over a 3-day period. On the first and second day of training, mice were given 30 minutes free access to a single sipper tube of water to familiarize them with accessing fluid in the lickometer device. Each 30 minute period began when the mouse made its first lick on the sipper tube; mice were allowed 30 minutes to make their first lick. On the third day of training, mice were presented with 10 second presentations (i.e., trials) of water to familiarize them with receiving and consuming fluid under a brief-access procedure in the lickometer. On each trial, the shutter that blocked access to the sipper tube was opened and mice were given 10 seconds to lick, and lick data were recorded by the lickometer computer. […]
# Testing. […] For studies, individual Opn3KO, Opn1swKO, Opn4KO, Opn5KO and wild-type mice were evaluated for brief-access licking responses with different agonists. […]
# TRPM5 knockout mice = test: Mouse brief-access taste assay (lickometer), TRPM5 knockout mice compared to wild type; type: in vivo; details: TRPM5 knockout (taste blind) mice, water restricted
"activation of OPN1SW, fold-change from baseline luciferase signal vs. log concentration of tastant (OPN1SW [1])","activation of OPN1SW, fold-change from baseline luciferase signal vs. log concentration of tastant (OPN1SW [1]; listed as genestein)",SMILES,activation of calcium dye OPN1SW detection elements (OPN1SW [2]),"activation of OPN3, fold-change from baseline luciferase signal vs. log concentration of tastant (OPN3 [3])",activation of calcium dye OPN3 detection elements (OPN3 [4]),"aversion to the bitter flavor (lick ratio), OPN3 knockout mice compared to wild type mice (OPN3 knockout mice)","aversive response to the bitter flavor (lick ratio), TRPM5 knockout mice (TRPM5 knockout mice)"
activated,activation of OPN1SW,O=c1c(-c2ccc(O)cc2)coc2cc(O)cc(O)c12 [genistein],significantly activated in a concentration dependent manner,–,–,–,–
–,–,C[C@@H]1O[C@@H](O[C@H]2[C@H](Oc3cc(O)c4c(c3)O[C@H](c3ccc(O)cc3)CC4=O)O[C@H](CO)[C@@H](O)[C@@H]2O)[C@H](O)[C@H](O)[C@H]1O [naringin],–,activation of OPN3; also recorded: activated; also recorded: potent activator of OPN3,significantly activated in a concentration dependent manner,reduced aversion,lost the aversive response
